From paper PMC5754384, “Evaluation of carboxamide-type synthetic cannabinoids as CB1/CB2 receptor agonists: difference between the enantiomers” (Forensic Toxicology, 2017)
Entries after “also recorded” stand apart in the source; their conditions may differ.

Columns and labels:
human CB1 receptor = human CB1 receptor (Homo sapiens, UniProt P21554); assay: [35S]GTPγS binding assay, CB1 receptor agonistic activity; type: biochemical; details: for Human CB1 receptor S/R ratio: EC50 value ratio of an (S)-enantiomer to the corresponding (R)-enantiomer; for CB1 receptor agonist activity (in words): [35S]GTPγS binding, maximum tested concentration 1.0 × 10^−4 M; for difference in the EC50 levels between the enantiomers to activate the CB1 receptor: (S)-enantiomer lower than (R)-enantiomer
Method: (§1) For the evaluation of CB1/CB2 cannabinoid receptor activity, [^35S]GTPγS binding assays were performed. These assays were performed at ADME and Tox. Research Institute, Sekisui Medical Co., Ltd. (Tokai-mura, Ibaraki, Japan).

human CB2 receptor = human CB2 receptor (Homo sapiens, UniProt P34972); assay: [35S]GTPγS binding assay, CB2 receptor agonistic activity; type: biochemical; details: for Selective index (CB1/CB2): EC50 ratio of the CB1 to CB2; for Human CB2 receptor S/R ratio: EC50 value ratio of an (S)-enantiomer to the corresponding (R)-enantiomer; for EC50: Human CB2 receptor EC50, [35S]GTPγS binding, tested 1 × 10^−11 to 1 × 10^−4 M; for CB2 receptor agonist activity (in words): [35S]GTPγS binding
Method: as §1

human CB2 receptor, sequence (P34972 whole entry): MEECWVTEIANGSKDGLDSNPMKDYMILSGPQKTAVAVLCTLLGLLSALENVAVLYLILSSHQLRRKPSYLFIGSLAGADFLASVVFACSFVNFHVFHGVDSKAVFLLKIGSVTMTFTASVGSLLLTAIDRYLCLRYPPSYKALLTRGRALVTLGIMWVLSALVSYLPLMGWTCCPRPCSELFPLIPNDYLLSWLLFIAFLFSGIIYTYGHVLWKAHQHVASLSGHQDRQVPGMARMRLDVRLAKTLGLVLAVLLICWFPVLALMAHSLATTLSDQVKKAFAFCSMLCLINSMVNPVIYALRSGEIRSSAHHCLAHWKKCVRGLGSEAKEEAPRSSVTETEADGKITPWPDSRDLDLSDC
human CB1 receptor, sequence (P21554 whole entry): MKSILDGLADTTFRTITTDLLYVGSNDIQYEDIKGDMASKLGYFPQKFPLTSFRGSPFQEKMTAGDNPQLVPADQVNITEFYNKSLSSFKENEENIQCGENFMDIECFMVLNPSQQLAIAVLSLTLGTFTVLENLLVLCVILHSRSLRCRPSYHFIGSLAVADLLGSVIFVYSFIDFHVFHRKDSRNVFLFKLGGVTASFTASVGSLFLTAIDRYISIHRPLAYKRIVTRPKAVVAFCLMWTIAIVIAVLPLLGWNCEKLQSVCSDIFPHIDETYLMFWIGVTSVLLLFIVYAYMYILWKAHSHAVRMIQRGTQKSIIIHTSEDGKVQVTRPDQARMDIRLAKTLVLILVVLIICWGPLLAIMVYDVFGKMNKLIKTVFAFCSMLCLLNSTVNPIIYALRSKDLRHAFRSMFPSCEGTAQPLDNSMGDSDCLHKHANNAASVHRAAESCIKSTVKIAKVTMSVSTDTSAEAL

Row | SMILES | EC50 (human CB1 receptor) [nM] | Human CB1 receptor S/R ratio (human CB1 receptor) | Selective index (CB1/CB2) (human CB2 receptor) | Human CB2 receptor S/R ratio (human CB2 receptor) | EC50 (human CB2 receptor) [nM] | CB1 receptor agonist activity (in words) (human CB1 receptor) | selective index of CB1/CB2 (human CB2 receptor; CB2 over CB1, from EC50 values) | CB2 receptor agonist activity (in words) (human CB2 receptor) | difference in the EC50 levels between the enantiomers to activate the CB1 receptor (human CB1 receptor)
1 | CCOC(=O)[C@H](NC(=O)c1nn(CCCCCF)c2ccccc12)C(C)C [(R)5F-EMB-PINACA, Ethyl [1-(5-fluoropentyl)-1H-indazole-3-carbonyl]-D-valinate] | 35.9 | 0.14 | 21.4 | 4.1 | 1.68 | – | – | – | –
2 | NC(=O)[C@@H](Cc1ccccc1)NC(=O)c1nn(CC2CCCCC2)c2ccccc12 [(R)-N-(1-Amino-1-oxo-3-phenylpropan-2-yl)-1-(cyclohexylmethyl)-1H-indazole-3-carboxamide] | 33700 | 0.0074 | 68.8 | 0.017 | 490 | – | – | – | –
3 | CC(C)[C@@H](NC(=O)c1nn(Cc2ccccc2F)c2ccccc12)C(N)=O [(R)AB-FUBINACA 2-fluorobenzyl isomer, (R)-N-(1-Amino-3-methyl-1-oxobutan-2-yl)-1-(2-fluorobenzyl)-1H-indazole-3-carboxamide] | 14.1 | 0.21 | 22.5 | 3.9 | 0.627 | – | – | – | –
4 | CCOC(=O)[C@H](NC(=O)c1nn(Cc2ccc(F)cc2)c2ccccc12)C(C)C [(R)EMB-FUBINACA, Ethyl [1-(4-fluorobenzyl)-1H-indazole-3-carbonyl]-D-valinate] | 30.7 | 0.015 | 35.6 | 2.5 | 0.863 | – | – | – | –
5 | COC(=O)[C@H](NC(=O)c1cn(Cc2ccc(F)cc2)c2ccccc12)C(C)(C)C [(R)MDMB-FUBICA, Methyl (R)-2-[1-(4-fluorobenzyl)-1H-indole-3-carboxamido]-3,3-dimethylbutanoate] | > 100000 | <0.0001 | >30,000 | 0.35 | 3.1 | lacks CB1 receptor activity; also recorded: not confirmed; also recorded: no [^35S]GTPγS binding activity | more than 3.2 × 10^4 fold | function as an agonist of the CB2 receptor; also recorded: functioned only on the CB2 receptor as an agonist | –
6 | CCOC(=O)[C@@H](NC(=O)c1nn(CCCCCF)c2ccccc12)C(C)C [(S)5F-EMB-PINACA, Ethyl [1-(5-fluoropentyl)-1H-indazole-3-carbonyl]-L-valinate] | 4.96 | 0.14 | 0.718 | 4.1 | 6.91 | – | – | – | –
7 | NC(=O)[C@H](Cc1ccccc1)NC(=O)c1nn(CC2CCCCC2)c2ccccc12 [(S)-N-(1-Amino-1-oxo-3-phenylpropan-2-yl)-1-(cyclohexylmethyl)-1H-indazole-3-carboxamide] | 251 | 0.0074 | 31.0 | 0.017 | 8.09 | – | – | – | 134 fold
8 | CC(C)[C@H](NC(=O)c1nn(Cc2ccccc2F)c2ccccc12)C(N)=O [(S)AB-FUBINACA 2-fluorobenzyl isomer, (S)-N-(1-Amino-3-methyl-1-oxobutan-2-yl)-1-(2-fluorobenzyl)-1H-indazole-3-carboxamide] | 2.92 | 0.21 | 1.20 | 3.9 | 2.44 | – | – | – | –
9 | CCOC(=O)[C@@H](NC(=O)c1nn(Cc2ccc(F)cc2)c2ccccc12)C(C)C [(S)EMB-FUBINACA, Ethyl [1-(4-fluorobenzyl)-1H-indazole-3-carbonyl]-L-valinate] | 0.458 | 0.015 | 0.214 | 2.5 | 2.14 | – | – | – | –
10 | COC(=O)[C@@H](NC(=O)c1cn(Cc2ccc(F)cc2)c2ccccc12)C(C)(C)C [(S)MDMB-FUBICA, Methyl (S)-2-[1-(4-fluorobenzyl)-1H-indole-3-carboxamido]-3,3-dimethylbutanoate] | 9.72 | <0.0001 | 9.08 | 0.35 | 1.07 | could activate both of these receptors at nanomolar levels | – | could activate both of these receptors at nanomolar levels | –
11 | COC(=O)C(NC(=O)c1cn(Cc2ccc(F)cc2)c2ccccc12)C(C)(C)C (stereo not drawn) [MDMB-FUBICA, methyl 2-[1-(4-fluorobenzyl)-1H-indole-3-carboxamido]-3,3-dimethylbutanoate] | – | – | – | – | – | – | – | – | more than 10,000 fold
